# Test results from patent US11760754B2, “Heterocyclic mitochondrial activity inhibitors and uses thereof” (UNIVERSITÉ DE MONTRÉAL, priority 2017, dated 2023).
# Like-named read-outs stand apart in the source and are kept apart here.
# Assays:
# [1] = system: Normal primitive CD34-positive cord blood cells; experiment: cells; details: Homo sapiens, CD34-positive cell, read-out: EC50 in normal primitive CD34-positive cord blood cells
# AML patient cells = experiment: Primary AML patient cell dose-response viability assay (chemical screen); details: for EC50: Homo sapiens
# OCI-AML3 cells [2] = system: OCI-AML3 cells
# Experimental: LC/MS metabolite measurements were carried out at the McGill Metabolomics platform. Authentic metabolite standards were purchased from Sigma-Aldrich Co., while the following LC/MS grade solvents and additives were purchased from Fisher: ammonium acetate, formic acid, water, methanol, and acetonitrile. OCI-AML3 cells (5 million cells, quadruplicates, treated with either DMSO or Mubritinib 500 nM for 20 h) were washed twice with ice-cold 150 mM ammonium formate pH 7.2. Metabolites were then extracted using 380 μl of LC/MS grade 50% methanol/50% water mixture and 220 μl of cold acetonitrile. Samples were then homogenized by 1.4 mm ceramic bead beating 2 min at 30 Hz (TissueLyser, Qiagen). A volume of 300 μl of ice-cold water and 600 μl of ice-cold methylene chloride were added to the lysates. Samples were vortexed and allowed to rest on ice for 10 min for phase separation followed by centrifugation at 4,000 rpm for 5 min. The upper aqueous layer was transferred to a fresh pre-chilled tube. Samples were eventually dried by vacuum centrifugation operating at −4° C. (Labconco) and stored at −80° C. until ready for LC-MS/MS data collection. For LC-MS/MS analysis, specimens were first re-suspended in 50 μl of water and clarified by centrifugation for 15 min at 15,000 rpm at 1° C. Samples were maintained at 4° C. for the duration of the LC-MS/MS analysis in the autosampler. Specimens were separated by U-HPLC (Ultra-High-Performance Liquid Chromatography) (1290 Infinity, Agilent Technologies) using a Scherzo SM-C18 (3 mm×150 mm) 3 μm column and guard column (Imtakt USA) operating at 10° C.
# ETC complex I = details: cell free assay
# Source text: The cell-free kit assay for ETC complex I activity was purchased from MitoSciences (Abcam, Cambridge, UK), and used in accordance with the manufacturer's protocol.
# OCI-AML3 cells [3] = experiment: OCI-AML3 cell growth inhibition, dose-response viability assay (CellTiterGlo); assay type: cell-based; details: OCI-AML3 cells
# How it was run: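 OCI-AML3 cells seeded, then exposed to compound in serial dilutions from 10 μM to 0.5 nM, in duplicate or quadruplicate. Viability read by CellTiter-Glo.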
# OCI-AML5 cells = details: 6-day culture, 384-well plates
# [4] = system: pyruvate dehydrogenase (PDH); details: OCI-AML3 cells
# OCI-AML3 cells [5] = system: OCI-AML3 cells; remark: listed apart in the source
# Source text: (§1) The following FACS antibodies were used: anti-human CD45 Pacific Blue (BioLegend 304029), CD45 fluorescein isothiocyanate (FITC; BioLegend 304006), CD33 phycoerythrin (PE; BD Bioscience 555450), CD33 BV421 (BD 562854), CD34 […] (APC; BD Bioscience 555824), CD34 APC (Stem Cell Technologies 10613), CD3 FITC (BD Bioscience 555332), CD4 APC-Cy7 (BD 560158), CD8 APC (BD 555369), CD3 PE-Cy5 (BD 555334), CD19 PE-Cy7(BD Bioscience 557835), anti-mouse CD45.1 APC-efluor730 (eBioscience 47-0453-82), ERBB2-PE (Biolegend®, 324406), Annexin V FITC (BD Bioscience®, 556419). Dead cells were stained using Propidium iodide at a final concentration of 1 μg/mL. For ROS quantification cells were stained with 1 μM H2DCFDA (Thermo Fisher, […]) under normal growth conditions. Cells were analyzed on LSRII® flow cytometer (BD Bioscience®), BD Canto® II cytometer (BD Bioscience) or on an IQue Screener (Intellicyt®) and results were analyzed with BD fluorescence-activated cell sorter (FACS) Diva®4.1 and FlowJo®X software.
# OCI-AML3 leukemic cells [6] = details: 500 nM, 24 h
# Source text: as §1
# Complex I = details: OCI-AML3 cells, ubiquinone-dependent vs -independent activity
# OCI-AML3 leukemic cells [7] = system: OCI-AML3 leukemic cells
# Experimental: Oxygen consumption rates and extracellular acidification rates were measured using a 96-well Seahorse Bioanalyzer XFe96® or XFe24® according to the manufacturer's instructions (Agilent Technologies). Seahorse XF Base medium was supplemented with 1 mM pyruvate, 2 mM glutamine and 10 mM glucose in the case of Mitochondrial Stress Test and with 1 mM pyruvate, 2 mM glutamine and no glucose in the case of Glycolytic Stress Test. The pH of the Seahorse media was then adjusted at 7.4 prior to assay. In brief, leukemic cells were seeded into Seahorse 96-well (or 24-well) plates pre-coated for 3 h with poly-lysine (Sigma-Aldrich, P4707) at a density of 75,000 cells/well in 100 μL (or 150,000 cells/well, in 150 μL) of temperature/CO2 pre-adjusted Seahorse media per well. The Seahorse plates were then centrifuged at 1400 rpm for 5 min. An additional 75 μL (or 375 μL) of Seahorse media was then added and cells were eventually analyzed following the manufacturer's instructions by adding compounds in a constant volume of 25 μL (or 75 μL). Compounds were acutely injected in cells at a final concentration of 1 μM for Mubritinib, 1 μM for Oligomycin, 0.5 μM for FCCP, 0.5 μM for Rotenone/Antimycin A, Glucose 10 mM and 2-Deoxy-Glucose 50 mM.
# [8] = 500 nM, 24 h, relative to DMSO control
smiles,measurement,setting,value
FC(F)(F)c1ccc(/C=C/c2nc(COc3ccc(CCCCn4ccnn4)cc3)co2)cc1 [Mubritinib],EC50,[1],> 375 nM
same,EC50,AML patient cells; read-out: Median EC50 in the AML population tested,~375 nM
same,EC50,"AML patient cells; read-out: median EC50, AML specimens with simultaneous mutations in NPM1, DNMT3A and FLT3-ITD",96 nM
same,EC50,"AML patient cells; read-out: median EC50, other AMLs subtypes",423 nM
same,sensitivity of HOX-high versus HOX-med/low AML cells,"AML patient cells; dose response validation screening, large cohort",significantly more sensitive
same,sensitivity of HOX-high versus HOX-med/low patient cells,AML patient cells; primary screen of 60 compounds,significantly more sensitive
same,levels of oxidized glutathione,OCI-AML3 cells [2]; [8],increased
same,levels of reduced glutathione,OCI-AML3 cells [2]; [8],decreased
same,"levels of citric acid cycle intermediates (citrate, alpha-ketoglutarate, succinate, fumarate, malate)",OCI-AML3 cells [2]; OCI-AML3 cells,reduces
same,effect on ETC Complex I activity,ETC complex I,inhibitory effect
same,OCI-AML3 cells sensitive to the compound (dose response),OCI-AML3 cells [3],sensitive
same,OCI-AML5 response to compound-induced cell death,OCI-AML5 cells,resistant
same,effect on pyruvate dehydrogenase (PDH),[4],inhibit pyruvate dehydrogenase (PDH) in an indirect fashion
same,compound-induced apoptosis in the presence of ROS scavenger N-acetyl-cysteine (NAC),"OCI-AML3 cells [5]; 100 nM 24 h, 6 mM NAC pre-incubation 4 hours",significantly decreased
same,Annexin V staining (marker of apoptosis),"OCI-AML3 cells [5]; 24 hours, 100 nM or 10 μM",increase
same,number of dead (PI-positive) cells,OCI-AML3 cells [5]; 27 hours of treatment,increase
same,live cell counts (PI-negative cells),"OCI-AML3 cells [5]; four days of treatment, dose-dependent",reduction
same,"level of ROS activity (hydroxyl, peroxyl), DCFDA",OCI-AML3 leukemic cells [6],increased
same,nature of inhibitory effect on complex I,Complex I,NADH-independent (i.e. ubiquinone-dependent)
same,glycolytic switch,OCI-AML3 leukemic cells [7]; OCI-AML3 cells,induce a glycolytic switch
same,oxygen consumption rate,"OCI-AML3 leukemic cells [7]; acute injection, 1 μM",impaired
